One data set deals with liver esterase. In words: Half-life catalyzed by Pig Liver Esterase. Type of data set: ADME, Sus scrofa.
Data set [1] has as its target Human immunodeficiency virus 1. As to the kind of experiment: tested for its anti-HIV activity.
In a further data set the test system is ATH-8 cell line. As to the kind of experiment: tested for cytotoxicity of HIV-1 replication in ATH-8 cells. Type of data set: functional, Homo sapiens.

Regarding `COC(=O)C(C)NP(=O)(OC/C=C\Cn1cnc2c(N)ncnc21)Oc1ccccc1` (configuration not stated), the half-life in the data set with liver esterase was 43.5 h.
Regarding `Nc1ncnc2c1ncn2C/C=C/CCOCP(=O)(O)O`, it took 9 µM to reach a half-maximal effect in data set [1] (EC50).
In the data set on liver esterase, `COC(=O)C(C)NP(=O)(OC/C=C/Cn1cnc2c(N)ncnc21)Oc1ccccc1` (configuration not stated) gave a half-life of 57.1 h. In addition, in the data set on ATH-8 cell line, the Cytotoxicity was >10 µM.
Consider `COC(=O)C(C)NP(=O)(OCC=C=Cn1cnc2c(O)ncnc21)Oc1ccccc1` (configuration not stated), for which the half-life in the data set with liver esterase was 8.5 h.
Take `COC(=O)C(C)NP(=O)(OC/C=C\Cn1cnc2c(O)ncnc21)Oc1ccccc1` (configuration not stated): the half-life with liver esterase is 58.3 h.
Same read-out and setting: as for `COC(=O)C(C)NP(=O)(OCC=C=Cn1cnc2c(N)ncnc21)Oc1ccccc1` (configuration not stated), the figure is 7.3 h.

One may read the half-life as the time in which the quantity being followed falls by half. Read a high half-life as slow decline. A word on the EC50: it is the concentration that produces a half-maximal response. Read a low EC50 as greater potency.

(Values after ChEMBL document CHEMBL1130087, “Phosphodiester amidates of unsaturated nucleoside analogues: synthesis and anti-HIV activity” (J Med Chem, 1997).)
